Values joined by “and” are separate entries in the source; they are usually repeats but may differ in a detail not shown here. Identical values can stand only once.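 48-hour exposure; five concentrations; linearly interpolated endpoints. Here, GI50 denotes the concentration required for 50% inhibition of growth. TGI: total growth inhibition.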
The molecules below were run on MDA-MB-468 breast (assay: inhibition of tumour cell growth, NCI panel, 48 h).
With `COc1cccc(-c2cc(-c3ccc(Nc4nc(Nc5ccc(Cl)cc5)nc(Nc5ccc(Cl)cc5)n4)cc3)nc(N)c2C#N)c1` the GI50 was 2.18 µM and the TGI was 4.79 µM.
`CC1(C)CC[C@]2(C(=O)O)CC[C@]3(C)C(=CC[C@@H]4[C@@]5(C)C/C(=C/c6cccnc6)[C@H](O)C(C)(C)[C@@H]5CC[C@]43C)[C@@H]2C1` was tested, and the GI50 was 17.1 µM and the TGI was 88.3 µM.
With `C=C1C(=O)O[C@H]2[C@H]1CC/C(COC(=O)NCc1ccc(Cn3c(=O)sn(CCCI)c3=O)cc1)=C\CC[C@@]1(C)O[C@@H]21` the GI50 was 1.54 µM and the TGI was 3.48 µM.
`FC(F)(F)c1ccc(-c2cnc(-c3nn[nH]n3)nc2NC2CCCCCC2)cc1` showed a GI50 of over 10 µM and a TGI of over 10 µM.
`N/C(=N\O)c1cn(C2OC(CO)C(O)C2O)c2ncnc(N)c12` (stereo not given) showed a GI50 of 0.126 µM and a TGI of 0.453 µM.
`Nc1nc(N)c2nc(CNc3ccc(C(=O)NC(CCC(=O)O)C(=O)O)cc3)cnc2n1` (stereo not given) was tested, and the GI50 was 0.0357 µM and < 0.01 µM and the TGI was over 100 µM.
`OC1(c2ccccc2)c2ccccc2N(c2ccccc2)c2ccc(Cl)cc21` (stereo not given) showed a GI50 of 0.0864 µM and a TGI of 0.317 µM.
Work on `COc1cnc2c(c1)C(=O)c1c-2n(CCCN2CCNCC2)c(=O)c2cc(F)ccc12` yielded a GI50 of 0.205 µM and a TGI of 0.784 µM.
In the case of `CC1(C)CCC(c2ccc(Cl)cc2)=C(CN2CCN(c3ccc(C(=O)NS(=O)(=O)c4ccc(N[C@H](CCN5CCOCC5)CSc5ccccc5)c(S(=O)(=O)C(F)(F)F)c4)cc3)CC2)C1`, the GI50 was 0.77 µM and the TGI was 2.64 µM.
`CC(C)OC(=O)OCOP(=O)(OCOC(=O)OC(C)C)C1CCCN(O)C1=O` (stereo not given) gave a GI50 of 1.61 µM and a TGI of over 100 µM.
Work on `COc1ncc(-c2ccc3nc(N)n(-c4ccccc4C(F)(F)F)c(=O)c3c2)cc1S(=O)(=O)Nc1ccc(F)cc1F` yielded a GI50 of 0.853 µM and a TGI of 2.92 µM.
`Nc1ncnc2c1ncn2C1SC(CO)C(O)C1O` (stereo not given) was tested, and the GI50 was 19.4 µM and the TGI was 58 µM.
`N#CSc1c[nH]c2cccc(/C=C/C(=O)/C=C(O)/C=C/c3cccc4[nH]cc(SC#N)c34)c12` gave a GI50 of 0.496 µM and a TGI of 1.22 µM.
Molecule `Nc1nc(-c2ccccn2)c(-c2ccc3ncccc3n2)s1` has a GI50 of over 25 µM and a TGI of over 25 µM.
In the case of `COc1cc(F)c(F)c(F)c1C(=O)c1cnc(NC2CCN(S(C)(=O)=O)CC2)nc1N`, the GI50 was 2.3 µM and the TGI was 7.27 µM.
In the case of `Nc1c2ccccc2nc2ccccc12`, the GI50 was 1.06 µM and 1.15 µM and the TGI was 2.85 µM and 2.88 µM.
`CN(C)CCCn1c2c(c3ccc(N4CCNCC4)cc3c1=O)C(=O)c1ccccc1-2` showed a GI50 of 0.949 µM and a TGI of 2.41 µM.
Molecule `CN1CCN(c2ccc(Nc3nc(NCCCNS(=O)(=O)c4cccc(F)c4)c4sccc4n3)cc2)CC1` has a GI50 of 2.59 µM and a TGI of 10.9 µM.
With `CCCN1CCCC(c2ccc(Nc3nc(Nc4cc(F)ccc4C(N)=O)c4cc[nH]c4n3)c(OC)c2)C1` (stereo not given) the GI50 was 3.25 µM and the TGI was 6.73 µM.
With `CNC(=S)N/N=C/CSC/C=N/NC(=S)NC` the GI50 was over 100 µM and the TGI was over 100 µM.
`O=c1[nH]c2c(ccc3cnccc32)c2c1CCC2` gave a GI50 of 0.206 µM and a TGI of 0.549 µM.
In the case of `COc1ccc(-c2cc(-c3ccc(Cl)cc3)c(C#N)c(=O)n2CCCCCC(=O)Nc2ccccc2N)cc1`, the GI50 was 3.24 µM and the TGI was 31.5 µM.
`CCOc1ccc(-c2nc3ccc(-c4nc5ccc(N6CCN(C)CC6)cc5[nH]4)cc3[nH]2)cc1OCC` gave a GI50 of 1.58 µM and a TGI of 4.6 µM.
For `COc1cc2nc(NC3CCC3)nc(NC3CCN(C(C)C)CC3)c2cc1OC`, the GI50 was 1.37 µM and the TGI was 2.85 µM.
With `CCn1nc(C#Cc2c(C)ccc3c(Nc4ccc(Cl)cc4)nccc23)c2c(N)ncnc21` the GI50 was 2.25 µM and the TGI was 10.5 µM.
Molecule `NC1=Nc2cc(OCCCCN3Cc4ccccc4C3)c(OCC3CC3)cc2C12CCCC2` has a GI50 of 1.25 µM and a TGI of 2.75 µM.
Work on `COc1cc(C(=O)N[C@@H]2CCCN(C)C2)ccc1Nc1ncc2c(n1)N(C1CCCC1)CC(C)(C)C(=O)N2C` yielded a GI50 of 0.0177 µM and a TGI of 3.39 µM.
With `N=C(N)c1ccc(-c2ccc(-c3cccs3)s2)cc1F` the GI50 was 0.0464 µM and the TGI was 0.256 µM.
For `Cc1ccc(CNc2ccc(Cl)cc2NCc2ccc(C)c(O)c2)cc1O`, the GI50 was 8.05 µM and the TGI was 16.8 µM.
`Fc1cnccc1-c1nc2ccc3[nH]ncc3c2c2c1CCCC2` gave a GI50 of 1.05 µM and a TGI of 7.86 µM.
For `C=CN(C(=O)N1CCN(c2cc3c(cc2F)c(=O)c(C(=O)O)cn3C2CC2)CC1)c1nc(-c2ccc(C)cc2)cs1`, the GI50 was 2.86 µM and the TGI was 9.14 µM.
Work on `COc1cc(-c2nn(-c3cccc(NC(=O)NCCNC(=O)c4ccccc4)c3)cc2-c2ccncc2)ccc1Cl` yielded a GI50 of 3.14 µM and a TGI of over 100 µM.
Molecule `O=c1c2cc(F)ccc2sc2c(NCCCNCCO)nc3ccc(F)cc3c12` has a GI50 of 1.78 µM and a TGI of 3.47 µM.
For `C=C(C)[C@@H]1CC[C@]2(C(=O)OC)CC[C@]3(C)[C@H](CC[C@@H]4[C@@]5(C)CC/C(=N\OCCC(=NCCC#N)NOCCC#N)C(C)(C)[C@@H]5CC[C@]43C)[C@@H]12`, the GI50 was 2.02 µM and the TGI was over 50 µM.
Molecule `CC(C)c1c(C(=O)Nc2ccccc2)c(-c2ccccc2)c(-c2ccc(F)cc2)n1CC[C@@H](O)C[C@@H](O)CC(=O)O` has a GI50 of 9.32 µM and a TGI of 68.9 µM.
`CCCCCCCCCCCCNC(=O)N[C@H](C(=O)N[C@H]1/C=C/OCCNC(=O)/C=C/[C@H](C(C)C)NC1=O)C(C)C` gave a GI50 of 0.898 µM and a TGI of 6.74 µM.
In the case of `O=c1[nH]c(-c2ccncc2)nc2sc3c(c12)CCCCCC3`, the GI50 was over 100 µM and the TGI was over 100 µM.
Work on `COC(=O)[C@@H](C)C[C@H](Cc1ccccc1)NC(=O)c1nc([C@@H](C[C@H](C(C)C)N(C)C(=O)[C@@H](NC(=O)[C@H]2CC(=O)CCN2C)C(C)C)OC(C)=O)sc1C(C)C` yielded a GI50 of 0.0258 µM and a TGI of 0.129 µM.
`CC1(C)N=C(N)N=C(N)N1c1cccc(CC(=O)Nc2ccccc2)c1` gave a GI50 of 22.1 µM and a TGI of over 100 µM.
`CN1CC[C@H](N(C)C(=O)N2CC(c3cc(F)ccc3F)=C[C@@]2(CO)c2ccccc2)[C@H](F)C1` gave a GI50 of 0.00514 µM.
`O=C1Nc2ccc(I)cc2/C1=C/c1cc(Br)c(O)c(Br)c1` was tested, and the GI50 was > 18.9 µM and 15.9 µM and the TGI was > 25 µM and 57.5 µM.
`CN(C)c1ccc(-c2cc(-c3cccc(NS(C)(=O)=O)c3)nc(N)c2C#N)cc1` showed a GI50 of 0.268 µM and a TGI of 1.17 µM.
Work on `Cc1n[nH]c(C)c1-c1c(C)n[nH]c1C` yielded a GI50 of 1.96 µM and a TGI of 4.75 µM.
`CCN(CC)c1ccc(C=C2C(=O)NC(=S)NC2=O)cc1` was tested, and the GI50 was 2.37 µM and the TGI was 5.56 µM.
In the case of `CC/C(=C\c1ccc(N(C)C)cc1)c1ccncc1`, the GI50 was 2.27 µM and the TGI was 7.32 µM.
`Cc1cc(C)c(CNC(=O)c2cc(Cl)c3c(c2C)O[C@@](C)(C2CCC(N(C)C)CC2)O3)c(=O)[nH]1` (stereo not given in full) gave a GI50 of 24.1 µM and a TGI of over 100 µM.
`Cc1ccccc1C1N=C2Oc3ccccc3C=C2C(=O)N1` (stereo not given) gave a GI50 of 0.524 µM and a TGI of over 100 µM.
`CC[C@@]12CC(C(=O)OC)=C3Nc4ccccc4[C@@]34CCN(C[C@H]3O[C@H]31)[C@@H]24` was tested, and the GI50 was 21.5 µM and the TGI was 98.7 µM.
`N#Cc1cccc(/C(N)=N/C(N)=N/c2nc3ccccc3s2)c1` gave a GI50 of 0.415 µM.
`CC(=O)Nc1ccc(S(=O)(=O)N2C(=O)CCC2C(=O)Nc2ccccc2)cc1` (stereo not given) gave a GI50 of 1.76 µM and a TGI of 19.2 µM.
In the case of `CCc1ccc2cc3c(ccc4ccccc43)c3c2c1CC3`, the GI50 was 0.481 µM and the TGI was over 100 µM.

— PubChem BioAssay (NCI)
